From patent US20250051338A1, “TYK2 DEGRADERS AND USES THEREOF” (Kymera Therapeutics, Inc., priority 2021, published 2025) come the findings set out here.

T1 sequence (P29597 whole entry): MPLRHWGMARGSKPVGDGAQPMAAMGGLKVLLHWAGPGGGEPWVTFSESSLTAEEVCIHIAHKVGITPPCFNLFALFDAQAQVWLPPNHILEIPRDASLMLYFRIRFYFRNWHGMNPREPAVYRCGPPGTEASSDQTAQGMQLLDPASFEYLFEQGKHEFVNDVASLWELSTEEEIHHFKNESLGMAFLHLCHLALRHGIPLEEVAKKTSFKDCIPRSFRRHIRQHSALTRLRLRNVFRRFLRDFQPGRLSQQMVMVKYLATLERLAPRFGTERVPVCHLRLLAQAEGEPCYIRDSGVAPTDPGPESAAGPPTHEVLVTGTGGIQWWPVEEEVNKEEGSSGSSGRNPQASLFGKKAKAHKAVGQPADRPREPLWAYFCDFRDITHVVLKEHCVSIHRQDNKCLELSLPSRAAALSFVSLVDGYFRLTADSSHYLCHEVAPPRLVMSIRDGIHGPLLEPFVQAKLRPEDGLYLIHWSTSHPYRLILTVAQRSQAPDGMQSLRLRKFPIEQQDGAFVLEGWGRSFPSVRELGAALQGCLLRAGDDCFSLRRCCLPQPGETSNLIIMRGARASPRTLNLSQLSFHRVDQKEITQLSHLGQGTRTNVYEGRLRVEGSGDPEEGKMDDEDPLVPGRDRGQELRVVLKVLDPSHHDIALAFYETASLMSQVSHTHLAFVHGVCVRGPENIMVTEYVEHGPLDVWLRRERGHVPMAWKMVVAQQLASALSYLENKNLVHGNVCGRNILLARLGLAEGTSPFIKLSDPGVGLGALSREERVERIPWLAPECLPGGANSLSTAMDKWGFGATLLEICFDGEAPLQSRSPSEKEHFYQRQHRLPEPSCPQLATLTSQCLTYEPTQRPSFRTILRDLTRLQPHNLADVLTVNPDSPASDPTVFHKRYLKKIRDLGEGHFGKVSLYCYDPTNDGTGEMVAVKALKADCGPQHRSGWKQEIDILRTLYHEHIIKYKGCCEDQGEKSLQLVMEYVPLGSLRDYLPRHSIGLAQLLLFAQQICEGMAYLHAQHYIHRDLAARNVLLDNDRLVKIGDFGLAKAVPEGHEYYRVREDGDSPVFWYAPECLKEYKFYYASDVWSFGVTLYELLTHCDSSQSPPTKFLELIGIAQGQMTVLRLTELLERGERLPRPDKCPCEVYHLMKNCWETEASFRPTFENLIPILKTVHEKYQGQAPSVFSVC

The first experiment has as its target T1, TYK2 (Homo sapiens, UniProt P29597). Briefly: TYK2 degradation MSD assay in human PBMC cells. More on the design: endogenous in cells; host or cells: human PBMC. The conditions noted are these: 4 to 24 hours incubation, read-out: TYK2 MSD DC50 rating in human PBMC. It is filed as cell-based. Here is the method: (§1) Example 3. TYK2 Degradation MSD Assay in EBV-B, OCI-LY10, and Human PBMC Cells
(§2) Degradation of TYK2 in cells was quantitatively measured using Meso Scale Discovery (MSD) technology. EBV-B, OCI-LY10 or human PBMC cells were seeded in 96-well plates with a density of 0.4 million cells per well in 100 μl fresh media. Compounds were then added to the assay plates with a final top concentration of 1 to 10 μM in a 1:3 dilution series with total of 9 doses. The assay plates were then incubated for 4 to 24 hours at 37° C. under 5% CO2. The assay plates were then centrifuged for 5 minutes, and the cell pellets were treated with 100 μl/well RIPA lysis buffer (Boston Bioproducts, BP-115D) with protease and phosphatase inhibitors (Roche, 05892791001 and 04906837001). To prepare MSD assay plates (MSD, L15XA), the plates were coated with the capture antibody (Santa Cruz Biotechnology, SC-5271) in PBS, at 40 μl/well. The plates were then incubated overnight at 4° C., washed 3 times with 150 μl/well TBST buffer (Cell Signaling Technology, 9997S) and blocked with 150 μl/well blocking buffer (MSD, R93BA-4). Cell lysates were then added to MSD assay plates and the plates were incubated at room temperature for 1 hour. The plates were then washed 3 times with 150 μl/well TBST buffer and 25 μl/well primary detection antibody (Cell Signaling Technology, #9312). The assay plates were then incubated at room temperature for 1 hour, washed 3 times with 150 μl/well TBST buffer, and 25 μl/well secondary detection antibody, SULFO-TAG anti-rabbit antibody (MSD, R32AB-1) were added. The assay plates were then incubated at room temperature for 1 hour, washed 3 times with 150 μl/well TBST buffer, and 150 μl/well MSD reading buffer (MSD, R92TC-2) were added. The plates were then analyzed by an MSD reader. The data was analyzed by GraphPad Prism and the dose dependent TYK2 degradation was fit using the four-parameter inhibitor vs. response nonlinear regression. The DC50 data were measured and categorized into different levels in Table H. The compound with DC50 less than or equal to 1 nM is marked as A, with DC50 more than 1 nM and less than or equal to 10 nM is marked as B, with DC50 more than 10 nM and less than or equal to 100 nM is marked as C, and with DC50 more than 100 nM or not available is marked as D.
Usually DC50 stands for the concentration at which degradation of the target reaches its halfway point. On to `CNC(=O)c1cnc(Nc2ccc(CN(C)C3CCCN(c4ccc5c(c4)n(C)c(=O)n5C4CCC(=O)NC4=O)C3)cn2)cc1Nc1cccc(-c2ncc(F)cn2)c1OC` (stereo not drawn) [Example K160], for which the DC50 was more than 100 nM.
Turning to `CNC(=O)c1cnc(Nc2ccc(CN3CC(N(C)c4cccc5c4n(C)c(=O)n5C4CCC(=O)NC4=O)C3)cn2)cc1Nc1cccc(-c2ncc(F)cn2)c1OC` (stereo not drawn) [Example K161], the DC50 was more than 100 nM.
The same measure, in the same setting: the figure for `CNC(=O)c1cnc(Nc2ccc(CN(C)C3CCCN(c4cccc5c4n(C)c(=O)n5C4CCC(=O)NC4=O)C3)cn2)cc1Nc1cccc(-c2ncc(F)cn2)c1OC` (stereo not drawn) [Example K162] is more than 100 nM.
In the case of `CNC(=O)c1cnc(Nc2ccc(CN3CC(N(C)c4ccc5c(c4)n(C)c(=O)n5C4CCC(=O)NC4=O)C3)cn2)cc1Nc1cccc(-c2ncc(F)cn2)c1OC` (stereo not drawn) [Example K163], the DC50 is more than 100 nM.
Take `CNC(=O)c1cnc(Nc2ccc(CN3CCC(N(C)c4ccc5c(c4)n(C)c(=O)n5C4CCC(=O)NC4=O)C3)cn2)cc1Nc1cccc(-c2ncc(F)cn2)c1OC` (stereo not drawn) [Example K164]: the DC50 was more than 100 nM.
On the same count and under the same terms, the figure for `CNC(=O)c1cnc(Nc2ccc(CN3CCC(c4cccc5c4n(C)c(=O)n5C4CCC(=O)NC4=O)C3)cn2)cc1Nc1cccc(-c2ncc(F)cn2)c1OC` (stereo not drawn) [Example K165] is more than 100 nM; for `CNC(=O)c1cnc(Nc2ccc(CN3CCC(c4ccc5c(c4)n(C)c(=O)n5C4CCC(=O)NC4=O)C3)cn2)cc1Nc1cccc(-c2ncc(F)cn2)c1OC` (stereo not drawn) [Example K166] it is more than 100 nM.
Regarding `CNC(=O)c1cnc(Nc2ccc(CN3CCC(c4cccc5c4n(C)c(=O)n5C4CCC(=O)NC4=O)CC3)cn2)cc1Nc1cccc(-c2ncc(F)cn2)c1OC` (stereo not drawn) [Example K167], the DC50 is more than 100 nM.
As to `CNC(=O)c1cnc(Nc2ccc(CN3CCCC(c4ccc5c(c4)n(C)c(=O)n5C4CCC(=O)NC4=O)C3)cn2)cc1Nc1cccc(-c2ncc(F)cn2)c1OC` (stereo not drawn) [Example K168], the DC50 was more than 100 nM.
On to `CCNC(=O)c1cnc(Nc2ccc(C(=O)N(C)C3CCN(c4cccc5c4n(C)c(=O)n5C4CCC(=O)NC4=O)CC3)cn2)cc1Nc1cccc(-c2ncc(F)cn2)c1OC` (stereo not drawn) [Example K169], for which the DC50 is more than 100 nM.
As to `CNC(=O)c1cnc(Nc2ccc(CN(C)C3CCN(c4ccc5c(c4)n(C)c(=O)n5C4CCC(=O)NC4=O)C3)cn2)cc1Nc1cccc(-c2ncc(F)cn2)c1OC` (stereo not drawn) [Example K170], the DC50 was more than 100 nM.
The same measure, in the same setting: in the case of `CNC(=O)c1cnc(Nc2ccc(CN(C)C3CCN(c4cccc5c4n(C)c(=O)n5C4CCC(=O)NC4=O)C3)cn2)cc1Nc1cccc(-c2ncc(F)cn2)c1OC` (stereo not drawn) [Example K171] it was more than 100 nM; in that of `CNC(=O)c1cnc(Nc2ccc(CN3CCC(c4ccc5c(c4)n(C)c(=O)n5C4CCC(=O)NC4=O)CC3)cn2)cc1Nc1cccc(-c2ncc(F)cn2)c1OC` (stereo not drawn) [Example K172], more than 100 nM; in that of `CNC(=O)c1cnc(Nc2ccc(CN3CCN(c4cccc5c4n(C)c(=O)n5C4CCC(=O)NC4=O)CC3)cn2)cc1Nc1cccc(-c2ncc(F)cn2)c1OC` (stereo not drawn) [Example K173], more than 100 nM.

A further experiment deals with T1, TYK2. Briefly: TYK2 degradation MSD assay in EBV-B cells. The conditions noted are these: 4 to 24 hours incubation, read-out: TYK2 MSD DC50 rating in EBV-B. More on the design: endogenous in cells; host or cells: EBV-B cells. In kind it is cell-based. The protocol:
as §1, §2
For the compound `CNC(=O)c1cnc(Nc2ccc(CN(C)C3CCCN(c4ccc5c(c4)n(C)c(=O)n5C4CCC(=O)NC4=O)C3)cn2)cc1Nc1cccc(-c2ncc(F)cn2)c1OC` (stereo not drawn) [Example K160], the DC50 was less than 1 nM.
Still for that read-out and setting: the figure for `CNC(=O)c1cnc(Nc2ccc(CN3CC(N(C)c4cccc5c4n(C)c(=O)n5C4CCC(=O)NC4=O)C3)cn2)cc1Nc1cccc(-c2ncc(F)cn2)c1OC` (stereo not drawn) [Example K161] is 1 to 10 nM; for `CNC(=O)c1cnc(Nc2ccc(CN(C)C3CCCN(c4cccc5c4n(C)c(=O)n5C4CCC(=O)NC4=O)C3)cn2)cc1Nc1cccc(-c2ncc(F)cn2)c1OC` (stereo not drawn) [Example K162] it is 1 to 10 nM; for `CNC(=O)c1cnc(Nc2ccc(CN3CC(N(C)c4ccc5c(c4)n(C)c(=O)n5C4CCC(=O)NC4=O)C3)cn2)cc1Nc1cccc(-c2ncc(F)cn2)c1OC` (stereo not drawn) [Example K163] it is more than 100 nM.
Same read-out and setting: in the case of `CNC(=O)c1cnc(Nc2ccc(CN3CCC(N(C)c4ccc5c(c4)n(C)c(=O)n5C4CCC(=O)NC4=O)C3)cn2)cc1Nc1cccc(-c2ncc(F)cn2)c1OC` (stereo not drawn) [Example K164] it was less than 1 nM; in that of `CNC(=O)c1cnc(Nc2ccc(CN3CCC(c4cccc5c4n(C)c(=O)n5C4CCC(=O)NC4=O)C3)cn2)cc1Nc1cccc(-c2ncc(F)cn2)c1OC` (stereo not drawn) [Example K165], 1 to 10 nM; in that of `CNC(=O)c1cnc(Nc2ccc(CN3CCC(c4ccc5c(c4)n(C)c(=O)n5C4CCC(=O)NC4=O)C3)cn2)cc1Nc1cccc(-c2ncc(F)cn2)c1OC` (stereo not drawn) [Example K166], less than 1 nM.
Still for that read-out and setting: the figure for `CNC(=O)c1cnc(Nc2ccc(CN3CCC(c4cccc5c4n(C)c(=O)n5C4CCC(=O)NC4=O)CC3)cn2)cc1Nc1cccc(-c2ncc(F)cn2)c1OC` (stereo not drawn) [Example K167] is less than 1 nM.
For `CNC(=O)c1cnc(Nc2ccc(CN3CCCC(c4ccc5c(c4)n(C)c(=O)n5C4CCC(=O)NC4=O)C3)cn2)cc1Nc1cccc(-c2ncc(F)cn2)c1OC` (stereo not drawn) [Example K168], the DC50 is more than 100 nM.
Same read-out and setting: the figure for `CCNC(=O)c1cnc(Nc2ccc(C(=O)N(C)C3CCN(c4cccc5c4n(C)c(=O)n5C4CCC(=O)NC4=O)CC3)cn2)cc1Nc1cccc(-c2ncc(F)cn2)c1OC` (stereo not drawn) [Example K169] is 1 to 10 nM.
The same measure, in the same setting: in the case of `CNC(=O)c1cnc(Nc2ccc(CN(C)C3CCN(c4ccc5c(c4)n(C)c(=O)n5C4CCC(=O)NC4=O)C3)cn2)cc1Nc1cccc(-c2ncc(F)cn2)c1OC` (stereo not drawn) [Example K170] it was less than 1 nM; in that of `CNC(=O)c1cnc(Nc2ccc(CN(C)C3CCN(c4cccc5c4n(C)c(=O)n5C4CCC(=O)NC4=O)C3)cn2)cc1Nc1cccc(-c2ncc(F)cn2)c1OC` (stereo not drawn) [Example K171], less than 1 nM; in that of `CNC(=O)c1cnc(Nc2ccc(CN3CCC(c4ccc5c(c4)n(C)c(=O)n5C4CCC(=O)NC4=O)CC3)cn2)cc1Nc1cccc(-c2ncc(F)cn2)c1OC` (stereo not drawn) [Example K172], less than 1 nM.
Still for that read-out and setting: the figure for `CNC(=O)c1cnc(Nc2ccc(CN3CCN(c4cccc5c4n(C)c(=O)n5C4CCC(=O)NC4=O)CC3)cn2)cc1Nc1cccc(-c2ncc(F)cn2)c1OC` (stereo not drawn) [Example K173] is less than 1 nM.

Another experiment addresses T1, TYK2. The experiment can be described thus: TYK2 degradation MSD assay in OCI-LY10 cells. It is filed as cell-based. More on the design: endogenous in cells; host or cells: EBV-B cells. The note with it: 4 to 24 hours incubation, read-out: TYK2 MSD DC50 rating in OCI-LY10. Here is the method:
as §1, §2
For the compound `CNC(=O)c1cnc(Nc2ccc(CN(C)C3CCCN(c4ccc5c(c4)n(C)c(=O)n5C4CCC(=O)NC4=O)C3)cn2)cc1Nc1cccc(-c2ncc(F)cn2)c1OC` (stereo not drawn) [Example K160], the DC50 was more than 100 nM.
As to `CNC(=O)c1cnc(Nc2ccc(CN3CC(N(C)c4cccc5c4n(C)c(=O)n5C4CCC(=O)NC4=O)C3)cn2)cc1Nc1cccc(-c2ncc(F)cn2)c1OC` (stereo not drawn) [Example K161], the DC50 is more than 100 nM.
Take `CNC(=O)c1cnc(Nc2ccc(CN(C)C3CCCN(c4cccc5c4n(C)c(=O)n5C4CCC(=O)NC4=O)C3)cn2)cc1Nc1cccc(-c2ncc(F)cn2)c1OC` (stereo not drawn) [Example K162]: the DC50 was more than 100 nM.
`CNC(=O)c1cnc(Nc2ccc(CN3CC(N(C)c4ccc5c(c4)n(C)c(=O)n5C4CCC(=O)NC4=O)C3)cn2)cc1Nc1cccc(-c2ncc(F)cn2)c1OC` (stereo not drawn) [Example K163]: the DC50 is more than 100 nM.
On the same count and under the same terms, the figure for `CNC(=O)c1cnc(Nc2ccc(CN3CCC(N(C)c4ccc5c(c4)n(C)c(=O)n5C4CCC(=O)NC4=O)C3)cn2)cc1Nc1cccc(-c2ncc(F)cn2)c1OC` (stereo not drawn) [Example K164] is more than 100 nM.
Same read-out and setting: in the case of `CNC(=O)c1cnc(Nc2ccc(CN3CCC(c4cccc5c4n(C)c(=O)n5C4CCC(=O)NC4=O)C3)cn2)cc1Nc1cccc(-c2ncc(F)cn2)c1OC` (stereo not drawn) [Example K165] it was more than 100 nM; in that of `CNC(=O)c1cnc(Nc2ccc(CN3CCC(c4ccc5c(c4)n(C)c(=O)n5C4CCC(=O)NC4=O)C3)cn2)cc1Nc1cccc(-c2ncc(F)cn2)c1OC` (stereo not drawn) [Example K166], more than 100 nM.
On the same count and under the same terms, in the case of `CNC(=O)c1cnc(Nc2ccc(CN3CCC(c4cccc5c4n(C)c(=O)n5C4CCC(=O)NC4=O)CC3)cn2)cc1Nc1cccc(-c2ncc(F)cn2)c1OC` (stereo not drawn) [Example K167] it was more than 100 nM; in that of `CNC(=O)c1cnc(Nc2ccc(CN3CCCC(c4ccc5c(c4)n(C)c(=O)n5C4CCC(=O)NC4=O)C3)cn2)cc1Nc1cccc(-c2ncc(F)cn2)c1OC` (stereo not drawn) [Example K168], more than 100 nM.
Turning to `CCNC(=O)c1cnc(Nc2ccc(C(=O)N(C)C3CCN(c4cccc5c4n(C)c(=O)n5C4CCC(=O)NC4=O)CC3)cn2)cc1Nc1cccc(-c2ncc(F)cn2)c1OC` (stereo not drawn) [Example K169], the DC50 is more than 100 nM.
Take `CNC(=O)c1cnc(Nc2ccc(CN(C)C3CCN(c4ccc5c(c4)n(C)c(=O)n5C4CCC(=O)NC4=O)C3)cn2)cc1Nc1cccc(-c2ncc(F)cn2)c1OC` (stereo not drawn) [Example K170]: the DC50 was more than 100 nM.
Same read-out and setting: in the case of `CNC(=O)c1cnc(Nc2ccc(CN(C)C3CCN(c4cccc5c4n(C)c(=O)n5C4CCC(=O)NC4=O)C3)cn2)cc1Nc1cccc(-c2ncc(F)cn2)c1OC` (stereo not drawn) [Example K171] it was more than 100 nM.
On the same count and under the same terms, in the case of `CNC(=O)c1cnc(Nc2ccc(CN3CCC(c4ccc5c(c4)n(C)c(=O)n5C4CCC(=O)NC4=O)CC3)cn2)cc1Nc1cccc(-c2ncc(F)cn2)c1OC` (stereo not drawn) [Example K172] it was more than 100 nM; in that of `CNC(=O)c1cnc(Nc2ccc(CN3CCN(c4cccc5c4n(C)c(=O)n5C4CCC(=O)NC4=O)CC3)cn2)cc1Nc1cccc(-c2ncc(F)cn2)c1OC` (stereo not drawn) [Example K173], more than 100 nM.
